T/C data for 30 compounds are collected here from PubChem BioAssay AID238 (DTP/NCI, 2004).

“And” between values parts separate entries of the source, which are not always exact repeats. Identical values can stand only once. Toxic doses and inconclusive results are not listed.

For this test, the system named is CAF1 mice, leiomyosarcoma No.2 ip, survival T/C%. The test is described as follows: NCI In Vivo Anticancer Drug Screen. Data for tumor model Leiomyosarcoma (No. 2) (intraperitoneal) in CAF1 mice. The note with it: endpoint: mean survival time, higher = longer survival. The method, then:
The antitumor activity of compounds was measured in mice bearing transplantable tumors. Survival or tumor size were measured and the results are expressed as the measurement made in the treated group (T) divided by the measurement made in the vehicle treated control group (C). The tumor model used in this assay is Leiomyosarcoma (No. 2) (intraperitoneal) in CAF1 mice

Setting [1] is: dose: 250.0 micrograms/kg/injection, schedule: Q01DX010 (ip), vehicle: saline.
[2] abbreviates: dose: 500.0 micrograms/kg/injection, schedule: Q01DX010 (ip), vehicle: saline.
[3] abbreviates: dose: 1.0 mg/kg/injection, schedule: Q01DX010 (ip), vehicle: saline.
Setting [4] is: dose: 2.0 mg/kg/injection, schedule: Q01DX010 (ip), vehicle: saline.
[5] abbreviates: dose: 4.0 mg/kg/injection, schedule: Q01DX010 (ip), vehicle: saline.
[6] abbreviates: dose: 8.0 mg/kg/injection, schedule: Q01DX010 (ip), vehicle: saline.
Where [7] appears, read: dose: 16.0 mg/kg/injection, schedule: Q01DX010 (ip), vehicle: saline.
Setting [8] is: dose: 32.0 mg/kg/injection, schedule: Q01DX010 (ip), vehicle: saline.
Setting [9] is: dose: 64.0 mg/kg/injection, schedule: Q01DX010 (ip), vehicle: saline.
[10] abbreviates: dose: 12.5 mg/kg/injection, schedule: Q01DX010 (ip), vehicle: saline.
[11] abbreviates: dose: 25.0 mg/kg/injection, schedule: Q01DX010 (ip), vehicle: saline.
Where [12] appears, read: dose: 50.0 mg/kg/injection, schedule: Q01DX010 (ip), vehicle: saline.
[13] abbreviates: dose: 3.13 mg/kg/injection, schedule: Q01DX010 (ip), vehicle: saline.
The mark [14] stands for this setting: dose: 6.25 mg/kg/injection, schedule: Q01DX010 (ip), vehicle: saline.
Where [15] appears, read: dose: 62.5 mg/kg/injection, schedule: Q01DX010 (ip), vehicle: saline.
The mark [16] stands for this setting: dose: 250.0 mg/kg/injection, schedule: Q01DX010 (ip), vehicle: saline.
Setting [17] is: dose: 15.0 mg/kg/injection, schedule: Q01DX010 (ip), vehicle: saline.
Setting [18] is: dose: 30.0 mg/kg/injection, schedule: Q01DX010 (ip), vehicle: saline.
The mark [19] stands for this setting: dose: 60.0 mg/kg/injection, schedule: Q01DX010 (ip), vehicle: saline.
Setting [20] is: dose: 120.0 mg/kg/injection, schedule: Q01DX010 (ip), vehicle: saline.
The mark [21] stands for this setting: dose: 31.3 mg/kg/injection, schedule: Q01DX010 (ip), vehicle: saline.
Where [22] appears, read: dose: 125.0 mg/kg/injection, schedule: Q01DX010 (ip), vehicle: saline.
The mark [23] stands for this setting: dose: 2.5 mg/kg/injection, schedule: Q01DX010 (ip), vehicle: saline.
The mark [24] stands for this setting: dose: 5.0 mg/kg/injection, schedule: Q01DX010 (ip), vehicle: saline.
Setting [25] is: dose: 10.0 mg/kg/injection, schedule: Q01DX010 (ip), vehicle: saline.
The mark [26] stands for this setting: dose: 20.0 mg/kg/injection, schedule: Q01DX010 (ip), vehicle: saline.
The mark [27] stands for this setting: dose: 40.0 mg/kg/injection, schedule: Q01DX010 (ip), vehicle: saline.
Where [28] appears, read: dose: 80.0 mg/kg/injection, schedule: Q01DX010 (ip), vehicle: saline.
Where [29] appears, read: dose: 15.6 mg/kg/injection, schedule: Q01DX010 (ip), vehicle: saline.

Turning to `O[C@H](CN1CC1)[C@@H](O)CN1CC1`, the T/C was 150 % of control (dose: 125.0 micrograms/kg/injection, schedule: Q01DX010 (ip), vehicle: saline); 179 % of control under setting [1]; 204 % of control under setting [2].

As to `Nc1nc(=S)c2ncn(C3OC(CO)C(O)C3O)c2[nH]1` (stereo not given), the T/C runs as follows: under setting [3], 258 % of control; under setting [4], 197 % of control and 204 % of control; under setting [5], 118 % of control; under setting [6], 90 % of control.

In the case of `Nc1nc(SCc2ccccc2)c2[nH]cnc2n1`, the T/C runs as follows: under setting [6], 112 % of control and 115 % of control; under setting [7], 100 % of control; under setting [8], 107 % of control and 120 % of control; under setting [9], 103 % of control and 104 % of control.

Regarding `COS(C)(=O)=O`, the T/C reads like this: under setting [10], 108 % of control; under setting [11], 108 % of control; under setting [12], 112 % of control.

As for `N=[N+]=CC(=O)OCC(N)C(=O)O` (stereo not given), the T/C under setting [13] was 96 % of control, the T/C under setting [14] is 104 % of control and the T/C under setting [11] was 96 % of control.

On to `CC(=O)N(C)C`, for which the T/C under setting [15] is 90 % of control and the T/C under setting [16] was 96 % of control.

Turning to `Clc1ncnc2nc[nH]c12`, the T/C was 86 % of control and 107 % of control (dose: 7.5 mg/kg/injection, schedule: Q01DX010 (ip), vehicle: saline); 93 % of control and 103 % of control under setting [17]; 111 % of control and 116 % of control under setting [18]; 107 % of control under setting [19].

For `N#CCSc1ncnc2nc[nH]c12`, the T/C under setting [17] was 86 % of control and 113 % of control; the T/C under setting [18] was 118 % of control and 120 % of control; the T/C under setting [19] is 113 % of control; the T/C under setting [20] was 118 % of control.

With `CS(=O)(=O)OCCC(=O)N1CCN(C(=O)CCOS(C)(=O)=O)CC1`, the T/C is, setting by setting: under setting [10], 172 % of control; under setting [11], 224 % of control; under setting [12], 232 % of control; (dose: 100.0 mg/kg/injection, schedule: Q01DX010 (ip), vehicle: saline) 304 % of control.

As to `C[C@H]1C(=O)O[C@@H]2CCN3CC=C(COC(=O)[C@](C)(O)[C@@]1(C)O)[C@H]23`, the T/C was 100 % of control under setting [13]; 94 % of control and 109 % of control under setting [14]; 86 % of control and 118 % of control under setting [10]; 108 % of control and 118 % of control under setting [11].

Turning to `O=NN(CCCl)C(=O)NCCCl`, the T/C under setting [13] was 300 % of control; the T/C under setting [14] was 258 % of control and 300 % of control; the T/C under setting [10] is 115 % of control and 120 % of control.

As for `COc1ccc2c(c1OC)C(=O)O[C@@H]2[C@H]1c2c(cc3c(c2OC)OCO3)CCN1C`, under setting [21], the T/C was 92 % of control.

As for `CCCSc1ncnc2nc[nH]c12`, the T/C is 189 % of control and 233 % of control under setting [21]; 103 % of control and 117 % of control under setting [22]; 103 % of control under setting [16].

Consider `S=P(N1CCOCC1)(N1CC1)N1CC1`, for which the T/C is, setting by setting: under setting [23], 96 % of control and 104 % of control; under setting [24], 116 % of control and 117 % of control; under setting [25], 153 % of control and 179 % of control; under setting [26], 164 % of control.

Turning to `c1ccc(CNc2ncnc3[nH]ncc23)cc1`, the T/C runs as follows: under setting [6], 95 % of control and 103 % of control; under setting [7], 92 % of control and 100 % of control; under setting [8], 92 % of control and 100 % of control; under setting [9], 95 % of control and 96 % of control.

On to `Cn1c(N)nc2nc[nH]c2c1=S`, for which the T/C by setting is: under setting [25], 100 % of control; under setting [26], 120 % of control; under setting [27], 104 % of control; under setting [28], 108 % of control.

Take `CCOC(=O)c1[nH]c2ccccc2c1CN(CCCl)CCCl`: the T/C is, setting by setting: under setting [25], 116 % of control; under setting [26], 170 % of control; under setting [27], 150 % of control.

For the compound `CCn1cnc2c(=S)nc[nH]c21`, the T/C was 100 % of control and 108 % of control under setting [29]; 96 % of control and 100 % of control under setting [21]; 100 % of control and 119 % of control under setting [15]; 112 % of control under setting [22].

As for `CCCCNc1ncnc2c1cnn2C`, the T/C is 92 % of control under setting [29]; 89 % of control and 103 % of control under setting [21]; 90 % of control and 112 % of control under setting [15].

As to `CN(C)c1ccc(Nc2c3ccccc3nc3ccccc23)cc1`, the T/C is, setting by setting: (dose: 36.0 mg/kg/injection, schedule: Q01DX010 (ip), vehicle: saline) 121 % of control; (dose: 54.0 mg/kg/injection, schedule: Q01DX010 (ip), vehicle: saline) 121 % of control; under setting [28], 300 % of control; under setting [20], 300 % of control.

In the case of `O=C(Nc1ccc(C2=NCCN2)cc1)c1cccc(C(=O)Nc2ccc(C3=NCCN3)cc2)c1`, the T/C by setting is: under setting [6], 260 % of control and 300 % of control; under setting [7], 257 % of control and 260 % of control.

For `O=C(Nc1ccc(NC2=NCCN2)cc1)c1ccc(C(=O)Nc2ccc(NC3=NCCN3)cc2)cc1`, the T/C by setting is: under setting [4], 103 % of control and 123 % of control; under setting [6], 123 % of control; under setting [7], 107 % of control.

With `CN1CC[C@]23c4c5ccc(O)c4O[C@H]2C(=O)CC[C@H]3[C@H]1C5`, the T/C is, setting by setting: under setting [5], 96 % of control; under setting [6], 92 % of control; under setting [7], 104 % of control; under setting [8], 92 % of control.

Turning to `NC(Cc1ccc(N(CCCl)CCCl)cc1)C(=O)O` (stereo not given), the T/C runs as follows: under setting [23], 191 % of control and 265 % of control; under setting [24], 166 % of control and 207 % of control; under setting [25], 150 % of control and 258 % of control; under setting [26], 192 % of control.

Consider `N#[N+]c1cnc([O-])[nH]c1=O`, for which the T/C is, setting by setting: under setting [23], 213 % of control; under setting [25], 93 % of control.

For the compound `CS(=O)(=O)OCCCCOS(C)(=O)=O`, the T/C by setting is: under setting [14], 100 % of control; under setting [10], 96 % of control and 123 % of control; under setting [11], 103 % of control; under setting [12], 86 % of control.

Take `CC(=O)O[C@]1(C(C)=O)CC[C@H]2[C@@H]3C[C@H](C)C4=CC(=O)C=C[C@]4(C)[C@@]3(F)[C@@H](O)C[C@@]21C`: the T/C was 96 % of control (dose: 12.5 mg/kg/injection, schedule: Q01DX010 (sc), vehicle: steriod suspending solution); 104 % of control (dose: 25.0 mg/kg/injection, schedule: Q01DX010 (sc), vehicle: steriod suspending solution); 88 % of control (dose: 50.0 mg/kg/injection, schedule: Q01DX010 (sc), vehicle: steriod suspending solution); 88 % of control (dose: 100.0 mg/kg/injection, schedule: Q01DX010 (sc), vehicle: steriod suspending solution).

As to `N=C(N)c1ccc(Nc2ccc(C(=N)N)cc2)cc1`, the T/C (dose: 3.0 mg/kg/injection, schedule: Q01DX010 (ip), vehicle: saline) is 108 % of control; the T/C (dose: 6.0 mg/kg/injection, schedule: Q01DX010 (ip), vehicle: saline) was 104 % of control; the T/C (dose: 12.0 mg/kg/injection, schedule: Q01DX010 (ip), vehicle: saline) was 100 % of control.

Turning to `CC(=O)NC1=C(N2CC2)C(=O)C(NC(C)=O)=C(N2CC2)C1=O`, the T/C is, setting by setting: (dose: 0.25 mg/kg/injection, schedule: Q01DX010 (ip), vehicle: saline) 163 % of control; (dose: 0.5 mg/kg/injection, schedule: Q01DX010 (ip), vehicle: saline) 222 % of control; under setting [3], 300 % of control; under setting [4], 100 % of control; under setting [1], 195 % of control; under setting [2], 195 % of control. Moreover, where the note is “dose: 1000.0 micrograms/kg/injection, schedule: Q01DX010 (ip), vehicle: saline”, the T/C is 300 % of control.

For the compound `O=C(O)c1[nH]c(=O)[nH]c(=O)c1F`, the T/C (dose: 1.25 mg/kg/injection, schedule: Q01DX010 (ip), vehicle: saline) was 112 % of control; the T/C under setting [23] is 112 % of control; the T/C under setting [24] is 120 % of control; the T/C under setting [25] was 108 % of control.
